Results reported in patent US20150105252A1, “SUBSTITUTED PYRAZOLES AS HERBICIDES” (E I DU PONT DE NEMOURS AND COMPANY, priority 2013, published 2015).

Assays:
wheat = test: Test A preemergence; assay type: in vivo, Triticum aestivum; details: preemergence; for Wheat plant response rating (0 to 100 scale): 125 g ai/ha, visual injury approx. 10 days after treatment; for Wheat plant response rating: 500 g ai/ha, visual injury after approx. 10 days, 0 to 100 scale (0 no effect, 100 complete control)
Summary of the method: (§1)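 Pre- and postemergence greenhouse test; loam+sand; cpd in non-phytotox. solvent/surfactant; post at 1–2 leaf, 2–10 cm; visual score ~10 d, 0 = none, 100 = complete control.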

corn = test: Test A preemergence; assay type: in vivo, Zea mays; details: preemergence; for Corn plant response rating (0 to 100 scale): 125 g ai/ha, visual injury approx. 10 days after treatment; for Corn plant response rating: 500 g ai/ha, visual injury after approx. 10 days, 0 to 100 scale (0 no effect, 100 complete control)
Summary of the method: as §1

barnyardgrass = test: Test A postemergence; assay type: in vivo, Echinochloa crus-galli
Summary of the method: as §1

foxtail, giant = test: Test A postemergence; assay type: in vivo, Setaria faberii
Summary of the method: as §1

morningglory [1] = test: Test A postemergence; assay type: in vivo, Ipomoea spp.
Summary of the method: as §1

pigweed [2] = test: Test A postemergence; assay type: in vivo, Amaranthus retroflexus
Summary of the method: as §1

sedge, umbrella = test: Test B flood; assay type: in vivo, Cyperus difformis; details: 250 g ai/ha, visual rating on 0 to 100 scale (0 no effect, 100 complete control), 13 to 15 days
Summary of the method: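 Plants were grown to the 2-leaf stage, then pots were flooded to 3 cm above the soil and compounds were applied directly into the paddy water. Water depth was held for the whole test; after 13 to 15 days in a greenhouse, injury was visually rated against untreated controls (0 = no effect, 100 = complete control).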

blackgrass = test: Test C preemergence; assay type: in vivo, Alopecurus myosuroides; details: preemergence; for Plant response rating, Blackgrass: 125 g ai/ha, scale 0 to 100, 0 = no effect, 100 = complete control
Summary of the method: (§2)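 Postemergence values come from plants sprayed at the 1- to 4-leaf stage (2–18 cm) in peat moss–vermiculite medium; preemergence values from seeds treated in a loam–sand blend. Both evaluated visually against controls after 13–15 greenhouse days, scale 0–100.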

morningglory [3] = test: Test C preemergence; assay type: in vivo, Ipomoea coccinea; details: preemergence; for Plant response rating, Morningglory: 125 g ai/ha, scale 0 to 100, 0 = no effect, 100 = complete control
Summary of the method: as §2

nutsedge, yellow = test: Test C preemergence; assay type: in vivo, Cyperus esculentus; details: preemergence; for Plant response rating, Nutsedge, Yellow: 125 g ai/ha, scale 0 to 100, 0 = no effect, 100 = complete control
Summary of the method: as §2

pigweed [4] = test: Test C preemergence; assay type: in vivo, Amaranthus retroflexus; details: preemergence; for Plant response rating, Pigweed: 125 g ai/ha, scale 0 to 100, 0 = no effect, 100 = complete control
Summary of the method: as §2

soybean = test: Test C preemergence; assay type: in vivo, Glycine max; details: preemergence; for Plant response rating, Soybean: 125 g ai/ha, scale 0 to 100, 0 = no effect, 100 = complete control
Summary of the method: as §2

velvetleaf = test: Test C preemergence; assay type: in vivo, Abutilon theophrasti; details: preemergence; for Plant response rating, Velvetleaf: 125 g ai/ha, scale 0 to 100, 0 = no effect, 100 = complete control
Summary of the method: as §2

[5] = Postemergence, 500 g ai/ha, 0 to 100 scale (0 no effect, 100 complete control)
[6] = postemergence, 125 g ai/ha, about 10 days, visual rating on 0 to 100 scale (0 no effect, 100 complete control)
[7] = 31 g ai/ha, visual rating, scale 0 to 100 (0 no effect, 100 complete control), 13 to 15 days
[8] = 62 g ai/ha, scale 0 to 100 (0 no effect, 100 complete control), 13 to 15 days
[9] = 250 g ai/ha, scale 0 to 100, 0 is no effect, 100 is complete control
[10] = Postemergence, 125 g ai/ha, 0 to 100 scale, 0 no effect, 100 complete control

Structure (SMILES)	Wheat plant response rating (0 to 100 scale) (wheat)	Wheat plant response rating (wheat)	Corn plant response rating (0 to 100 scale) (corn)	Corn plant response rating (corn)	Barnyardgrass plant response rating (barnyardgrass; [5])	Barnyardgrass plant response rating (barnyardgrass; [6])	Foxtail, Giant plant response rating (foxtail, giant; [5])	Foxtail, Giant plant response rating (foxtail, giant; [6])	Morningglory plant response rating (morningglory [1]; [5])	Pigweed plant response rating (pigweed [2]; [5])	Plant response rating, Sedge, Umbrella (sedge, umbrella)	Blackgrass plant response rating (blackgrass; [7])	Blackgrass plant response rating (blackgrass; [8])	Plant response rating, Blackgrass (blackgrass; 13 to 15 days)	Blackgrass plant response rating (blackgrass; [9])	Morningglory plant response rating (morningglory [3]; [7])	Morningglory plant response rating (morningglory [3]; [8])	Plant response rating, Morningglory (morningglory [3]; 13 to 15 days)	Morningglory plant response rating (morningglory [3]; [9])	Nutsedge, Yellow plant response rating (nutsedge, yellow; [7])	other results
CCNC(=O)c1cc(CCCl)n(Cc2ccnc(C(F)(F)F)c2)n1 [Compound 179]	10	100	10	50	90	70	90	90	100	100	80	5	40	90	95	85	95	100	100	10	Morningglory plant response rating (morningglory [1]; [6]): 60; Pigweed plant response rating (pigweed [2]; [6]): 100; Nutsedge, Yellow plant response rating (nutsedge, yellow; [8]): 15; Plant response rating, Nutsedge, Yellow (nutsedge, yellow; 13 to 15 days): 75; Nutsedge, Yellow plant response rating (nutsedge, yellow; [9]): 85; Pigweed plant response rating (pigweed [4]; [7]): 100; Pigweed plant response rating (pigweed [4]; [8]): 100; Plant response rating, Pigweed (pigweed [4]; 13 to 15 days): 100; Pigweed plant response rating (pigweed [4]; [9]): 98; Soybean plant response rating (soybean; [7]): 35; Soybean plant response rating (soybean; [8]): 65; Plant response rating, Soybean (soybean; 13 to 15 days): 85; Soybean plant response rating (soybean; [9]): 98; Velvetleaf plant response rating (velvetleaf; [7]): 35; Velvetleaf plant response rating (velvetleaf; [8]): 80; Plant response rating, Velvetleaf (velvetleaf; 13 to 15 days): 100; Velvetleaf plant response rating (velvetleaf; [9]): 100
CCCc1cc(C(=O)NOCC)nn1Cc1ccnc(C(F)(F)F)c1 [Compound 185]	70	90	10	30	90	80	90	80	90	100	80	5	10	90	80	15	75	85	98	5	Morningglory plant response rating (morningglory [1]; [10]): 20; Pigweed plant response rating (pigweed [2]; [10]): 60; Nutsedge, Yellow plant response rating (nutsedge, yellow; [8]): 40; Plant response rating, Nutsedge, Yellow (nutsedge, yellow; 13 to 15 days): 75; Nutsedge, Yellow plant response rating (nutsedge, yellow; [9]): 75; Pigweed plant response rating (pigweed [4]; [7]): 100; Pigweed plant response rating (pigweed [4]; [8]): 100; Plant response rating, Pigweed (pigweed [4]; 13 to 15 days): 100; Pigweed plant response rating (pigweed [4]; [9]): 100; Soybean plant response rating (soybean; [7]): 5; Soybean plant response rating (soybean; [8]): 5; Plant response rating, Soybean (soybean; 13 to 15 days): 25; Soybean plant response rating (soybean; [9]): 65; Velvetleaf plant response rating (velvetleaf; [7]): 20; Velvetleaf plant response rating (velvetleaf; [8]): 65; Plant response rating, Velvetleaf (velvetleaf; 13 to 15 days): 100; Velvetleaf plant response rating (velvetleaf; [9]): 98
